Tests used:
IRAK4 = target: T1, IRAK4 (Homo sapiens, UniProt Q9NWZ3); assay: Western blot degradation of IRAK4 (hPBMC); format: cell-based; conditions: Table D1
T1 construct: evaluate the effects of the compounds of the present disclosure on the expression of target proteins in cells; endogenous in cells; host or cells: hPBMC
T1 sequence (Q9NWZ3 1-460): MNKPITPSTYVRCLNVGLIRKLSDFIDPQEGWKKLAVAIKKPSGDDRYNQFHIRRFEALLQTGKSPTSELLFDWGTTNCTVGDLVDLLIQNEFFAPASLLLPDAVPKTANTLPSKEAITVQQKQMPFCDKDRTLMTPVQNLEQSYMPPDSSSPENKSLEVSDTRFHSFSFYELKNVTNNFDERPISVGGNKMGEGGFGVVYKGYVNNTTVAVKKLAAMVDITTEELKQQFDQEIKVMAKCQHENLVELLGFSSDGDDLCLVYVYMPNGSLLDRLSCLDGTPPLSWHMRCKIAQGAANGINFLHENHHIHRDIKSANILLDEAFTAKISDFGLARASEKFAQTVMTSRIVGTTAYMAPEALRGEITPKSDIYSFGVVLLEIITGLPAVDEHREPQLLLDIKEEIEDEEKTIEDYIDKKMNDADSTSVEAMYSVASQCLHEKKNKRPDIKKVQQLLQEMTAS
Description: Conventional Western blot assay was performed to evaluate the effects of the compounds of the present disclosure on the expression of target proteins in cells.
(1) Cell Seeding and Protein Harvesting: The selected cells were processed according to the cell seeding procedure and protein harvesting procedure in Table III-2. Table III-2 Cell Seeding and Protein Harvesting Procedures
(2) To the collected supernatant, 5X SDS sample loading buffer was added, followed by denaturation at 95°C for 5 minutes. The denatured samples were then separated by SDS-PAGE electrophoresis on a polyacrylamide gel. Proteins were transferred to a nitrocellulose membrane (0.45 µm NC membrane), blocked with blocking buffer at room temperature for 1 hour, and subjected to antibody incubation and development procedures according to the antibody manufacturer's instructions (Cell Signaling Technology).
Half-Maximal Degradation Concentration value (the drug concentration required for degrading proteins by 50%, abbreviated as DC50) reads method: comparing the grayscale values of Western blot bands from drug-treated samples with those from blank DMSO-treated controls, and identifying the drug concentration range at which the grayscale value is half that of the DMSO-treated control bands.
DC50 values can be calculated using ImageJ software to measure grayscale values of Western blot bands from drug-treated samples. The concentration-response curve is fitted to estimate the drug concentration corresponding to half the grayscale value.
Target protein remaining (%) refers to the percentage of target protein remaining in hPBMC cells after treatment with protein degrader compounds.
Calculation method for target protein remaining (%): Use ImageJ software to measure grayscale values of Western blot bands from drug (protein degrader)-treated samples. The grayscale value of drug-treated bands is divided by that of internal control protein bands, and the resulting quotient is normalized to obtain the relative percentage of remaining target protein after protein degrader treatment.
Target protein degradation rate (%) = 100% - target protein remaining (%).

[1] = target: T2, human Cereblon WT GST-tagged protein (Homo sapiens, UniProt Q96SW2); assay: CRBN binding, HTRF (CEREBLON BINDING kit); conditions: Table II-2, CRBN binding screening, HTRF; for inhibition at 0.5 µM: read-out: Inhibition rate (%) at 0.5µM; for inhibition at 2 µM: read-out: Inhibition rate (%) at 2 µM
T2 construct: purchased CISBIO 64BDCRBNPEH
T2 sequence (Q96SW2 whole entry): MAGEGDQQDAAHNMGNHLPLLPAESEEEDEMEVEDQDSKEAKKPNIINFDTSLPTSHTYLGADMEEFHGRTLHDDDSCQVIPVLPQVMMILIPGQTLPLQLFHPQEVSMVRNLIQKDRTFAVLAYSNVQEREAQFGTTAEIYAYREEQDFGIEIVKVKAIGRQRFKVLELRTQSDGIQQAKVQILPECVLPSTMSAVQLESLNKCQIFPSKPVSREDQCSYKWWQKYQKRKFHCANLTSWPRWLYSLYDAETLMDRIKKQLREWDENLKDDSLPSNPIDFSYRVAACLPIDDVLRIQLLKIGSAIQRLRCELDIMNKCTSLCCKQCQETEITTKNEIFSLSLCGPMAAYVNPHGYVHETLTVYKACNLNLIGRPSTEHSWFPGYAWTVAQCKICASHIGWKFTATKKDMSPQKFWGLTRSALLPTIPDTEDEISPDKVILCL
Summary of the method: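 After 3 h at room temperature, emission at 665 and 620 nm was measured in a homogeneous time-resolved fluorescence format. Compounds competed with a Thalidomide-Re probe for GST-tagged wild-type human CRBN, which was labelled with a Eu anti-GST antibody.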

Structure (SMILES) | Degradation of substrate protein IRAK4 (substrate protein remaining %) (IRAK4) | inhibition at 0.5 µM [1] [%] | inhibition at 2 µM [1] [%]
CC(C)(O)c1cc2nc(C3CCN(Cc4cncc(C5CCC(=O)NC5=O)c4)CC3)sc2cc1NC(=O)c1cccc(C(F)(F)F)n1 (centres unmarked) [GT-07624, N-(2-(1-((5-(2,6-dioxopiperidin-3-yl)pyridin-3-yl)methyl)piperidin-4-yl)-5-(2-hydroxypropan-2-yl)benzo[d]thiazol-6-yl)-6-(trifluoromethyl)picolinamide] | A (A is defined as 0% ≤ substrate protein remaining % ≤ 80%) | 20 to 30 | 60 to 80
CC(C)(O)c1cc2nn(C3CCN(Cc4ccnc(C5CCC(=O)NC5=O)c4)CC3)cc2cc1NC(=O)c1cccc(C(F)(F)F)n1 (centres unmarked) [GT-07542, N-(2-(1-((2-(2,6-dioxopiperidin-3-yl)pyridin-4-yl)methyl)piperidin-4-yl)-6-(2-hydroxypropan-2-yl)-2H-indazol-5-yl)-6-(trifluoromethyl)picolinamide] | A (A is defined as 0% ≤ substrate protein remaining % ≤ 80%) | 30 to 40 | 60 to 80
CC(C)(O)c1cc2nc(C3CCN(Cc4cc(N5CCC(=O)NC5=O)ncc4F)CC3)oc2cc1NC(=O)c1cccc(C(F)(F)F)n1 [GT-07626, N-(2-(1-((2-(2,4-dioxotetrahydropyrimidin-1(2H)-yl)-5-fluoropyridin-4-yl)methyl)piperidin-4-yl)-5-(2-hydroxypropan-2-yl)benzo[d]oxazol-6-yl)-6-(trifluoromethyl)picolinamide] | A (A is defined as 0% ≤ substrate protein remaining % ≤ 80%) | 20 to 30 | 60 to 80
COc1cc2nn(C3CCN(Cc4cncc(N5CCC(=O)NC5=O)c4)CC3)cc2cc1NC(=O)c1cccc(C(F)(F)F)n1 [GT-07533, N-(2-(1-((5-(2,4-dioxotetrahydropyrimidin-1(2H)-yl)pyridin-3-yl)methyl)piperidin-4-yl)-6-methoxy-2H-indazol-5-yl)-6-(trifluoromethyl)picolinamide] | A (A is defined as 0% ≤ substrate protein remaining % ≤ 80%) | 10 to 20 | 53 to 60
CC(C)Nc1cc(-n2ccc3cc(C#N)cnc32)ncc1C(=O)NC1CCN(Cc2cc(C3CCC(=O)NC3=O)cnc2F)CC1 (centres unmarked) [GT-07544, 6-(5-cyano-1H-pyrrolo[2,3-b]pyridin-1-yl)-N-(1-((5-(2,6-dioxopiperidin-3-yl)-2-fluoropyridin-3-yl)methyl)piperidin-4-yl)-4-(isopropylamino)nicotinamide] | A (A is defined as 0% ≤ substrate protein remaining % ≤ 80%) | 53 to 60 | 80 to 100
CC(C)(O)c1cc2nc(C3CCN(Cc4ccnc(C5CCC(=O)NC5=O)c4)CC3)sc2cc1NC(=O)c1cccc(C(F)(F)F)n1 (centres unmarked) [GT-07622, N-(2-(1-((2-(2,6-dioxopiperidin-3-yl)pyridin-4-yl)methyl)piperidin-4-yl)-5-(2-hydroxypropan-2-yl)benzo[d]thiazol-6-yl)-6-(trifluoromethyl)picolinamide] | A (A is defined as 0% ≤ substrate protein remaining % ≤ 80%) | – | –
COc1cc2nn(C3CCN(Cc4cccc(NC5CCC(=O)NC5=O)c4)CC3)cc2cc1NC(=O)c1cccc(C(F)(F)F)n1 (centres unmarked) [GT-04763, N-(2-(1-(3-((2,6-dioxopiperidin-3-yl)amino)benzyl)piperidin-4-yl)-6-methoxy-2H-indazol-5-yl)-6-(trifluoromethyl)picolinamide] | A (A is defined as 0% ≤ substrate protein remaining % ≤ 80%) | – | –
O=C1CCN(c2cccc(CN3CCC(n4cc(NC(=O)c5coc(-c6ccnc(NCC(F)(F)F)c6)n5)c(C(F)F)n4)CC3)c2)C(=O)N1 [GT-05190, N-(3-(difluoromethyl)-1-(1-(3-(2,4-dioxotetrahydropyrimidin-1(2H)-yl)benzyl)piperidin-4-yl)-1H-pyrazol-4-yl)-2-(2-((2,2,2-trifluoroethyl)amino)pyridin-4-yl)oxazole-4-carboxamide] | A (A is defined as 0% ≤ substrate protein remaining % ≤ 80%) | – | –
CC(C)Nc1cc(-n2ccc3cc(C#N)cnc32)ncc1C(=O)NC1CCN(Cc2cccnc2C2CCC(=O)NC2=O)CC1 (centres unmarked) [GT-07546, 6-(5-cyano-1H-pyrrolo[2,3-b]pyridin-1-yl)-N-(1-((2-(2,6-dioxopiperidin-3-yl)pyridin-3-yl)methyl)piperidin-4-yl)-4-(isopropylamino)nicotinamide] | A (A is defined as 0% ≤ substrate protein remaining % ≤ 80%) | – | –
COc1cc2nn(C3CCN(Cc4ccnc(N5CCC(=O)NC5=O)c4)CC3)cc2cc1NC(=O)c1cccc(C(F)(F)F)c1 [GT-07415, N-(2-(1-((2-(2,4-dioxotetrahydropyrimidin-1(2H)-yl)pyridin-4-yl)methyl)piperidin-4-yl)-6-methoxy-2H-indazol-5-yl)-3-(trifluoromethyl)benzamide] | A (A is defined as 0% ≤ substrate protein remaining % ≤ 80%) | – | –
CC(C)Nc1cc(-n2ccc3cc(C#N)cnc32)ncc1C(=O)NC1CCN(Cc2cncc(C3CCC(=O)NC3=O)c2)CC1 (centres unmarked) [GT-07413, 6-(5-cyano-1H-pyrrolo[2,3-b]pyridin-1-yl)-N-(1-((5-(2,6-dioxopiperidin-3-yl)pyridin-3-yl)methyl)piperidin-4-yl)-4-(isopropylamino)nicotinamide] | A (A is defined as 0% ≤ substrate protein remaining % ≤ 80%) | – | –
COc1cc2nn(C3CCN(Cc4cncc(N5CCC(=O)NC5=O)c4)CC3)cc2cc1NC(=O)c1cccc(C(F)(F)F)c1 [GT-07416, N-(2-(1-((5-(2,4-dioxotetrahydropyrimidin-1(2H)-yl)pyridin-3-yl)methyl)piperidin-4-yl)-6-methoxy-2H-indazol-5-yl)-3-(trifluoromethyl)benzamide] | A (A is defined as 0% ≤ substrate protein remaining % ≤ 80%) | – | –
COc1cc2nn(C3CCN(Cc4ccnc(N5CCC(=O)NC5=O)c4)CC3)cc2cc1NC(=O)c1cccc(C(F)(F)F)n1 [GT-07532, N-(2-(1-((2-(2,4-dioxotetrahydropyrimidin-1(2H)-yl)pyridin-4-yl)methyl)piperidin-4-yl)-6-methoxy-2H-indazol-5-yl)-6-(trifluoromethyl)picolinamide] | A (A is defined as 0% ≤ substrate protein remaining % ≤ 80%) | – | –
O=C1CCN(c2ccc(CN3CCC(n4cc(NC(=O)c5cnn6ccc(N7C[C@H]8C[C@@H]7CO8)nc56)c(C(F)F)n4)CC3)cn2)C(=O)N1 [GT-05054, 5-((1R,4R)-2-oxa-5-azabicyclo[2.2.1]heptan-5-yl)-N-(3-(difluoromethyl)-1-(1-((6-(2,4-dioxotetrahydropyrimidin-1(2H)-yl)pyridin-3-yl)methyl)piperidin-4-yl)-1H-pyrazol-4-yl)pyrazolo[1,5-a]pyrimidine-3-carboxamide] | A (A is defined as 0% ≤ substrate protein remaining % ≤ 80%) | – | –
COc1cc2nn(C3CCN(Cc4ccc(N5CCC(=O)NC5=O)cc4)CC3)cc2cc1NC(=O)c1cccc(C(F)(F)F)c1 [GT-04752, N-(2-(1-(4-(2,4-dioxotetrahydropyrimidin-1(2H)-yl)benzyl)piperidin-4-yl)-6-methoxy-2H-indazol-5-yl)-3-(trifluoromethyl)benzamide] | A (A is defined as 0% ≤ substrate protein remaining % ≤ 80%) | – | –
CC(C)Nc1cc(-n2ccc3cc(C#N)cnc32)ncc1C(=O)NC1CCN(Cc2ccnc(N3CCC(=O)NC3=O)c2)CC1 [GT-07409, 6-(5-cyano-1H-pyrrolo[2,3-b]pyridin-1-yl)-N-(1-((2-(2,4-dioxotetrahydropyrimidin-1(2H)-yl)pyridin-4-yl)methyl)piperidin-4-yl)-4-(isopropylamino)nicotinamide] | A (A is defined as 0% ≤ substrate protein remaining % ≤ 80%) | – | –
